Laboratory results: ChEMBL document CHEMBL5715954, “Silencing c-Myc translation as a therapeutic strategy through targeting PI3Kδ and CK1ε in hematological malignancies” (Blood, 2017)
Activity calls are given as the source filed them. No cut-off for these calls is given here.

Experiments:
mTORC1 (Homo sapiens) [1] = target: T1, mTORC1 (Homo sapiens) (UniProt P42345+Q8N122+Q9BVC4); test: Inhibition of mTORC1 in human CLL cells assessed as reduction in c-Myc expression at 5 uM measured after 24 hrs by Western blot analysis; format: cell-based; settings: CLL cell
mTORC1 (Homo sapiens) [2] = target: T1, mTORC1 (Homo sapiens); test: Inhibition of mTORC1 in human SLL cells assessed as reduction in c-Myc expression at 5 uM measured after 24 hrs by Western blot analysis; format: cell-based
mTORC1 (Homo sapiens) [3] = target: T1, mTORC1 (Homo sapiens); test: Inhibition of mTORC1 in human PF-382 cells assessed as reduction in c-Myc expression at 5 uM measured after 24 hrs by Western blot analysis; format: cell-based
mTORC1 (Homo sapiens) [4] = target: T1, mTORC1 (Homo sapiens); test: Inhibition of mTORC1 in human CLL cells assessed as reduction in 4E-BP1 phosphorylation at 5 uM measured after 24 hrs by Western blot analysis; format: cell-based; settings: CLL cell
mTORC1 (Homo sapiens) [5] = target: T1, mTORC1 (Homo sapiens); test: Inhibition of mTORC1 in human SLL cells assessed as reduction in 4E-BP1 phosphorylation at 5 uM measured after 24 hrs by Western blot analysis; format: cell-based
mTORC1 (Homo sapiens) [6] = target: T1, mTORC1 (Homo sapiens); test: Inhibition of mTORC1 in human LY7 cells assessed as reduction in 4E-BP1 phosphorylation at 3 uM measured after 24 hrs by Western blot analysis; format: cell-based
mTORC1 (Homo sapiens) [7] = target: T1, mTORC1 (Homo sapiens); test: Inhibition of mTORC1 in human LY10 cells assessed as reduction in c-Myc expression at 3 uM measured after 24 hrs in presence of bortezomib by Western blot analysis; format: cell-based
mTORC1 (Homo sapiens) [8] = target: T1, mTORC1 (Homo sapiens); test: Inhibition of mTORC1 in human CLL cells assessed as reduction in 4E-BP1 phosphorylation at 5 uM measured after 24 hrs in presence of bortezomib by Western blot analysis; format: cell-based; settings: CLL cell
mTORC1 (Homo sapiens) [9] = target: T1, mTORC1 (Homo sapiens); test: Inhibition of mTORC1 in human LY7 cells assessed as reduction in c-Myc expression at 3 uM measured after 24 hrs by Western blot analysis; format: cell-based
mTORC1 (Homo sapiens) [10] = target: T1, mTORC1 (Homo sapiens); test: Inhibition of mTORC1 in human LY10 cells assessed as reduction in c-Myc expression at 3 uM measured after 24 hrs by Western blot analysis; format: cell-based
mTORC1 (Homo sapiens) [11] = target: T1, mTORC1 (Homo sapiens); test: Inhibition of mTORC1 in human PF-382 cells assessed as reduction in 4E-BP1 phosphorylation at 5 uM measured after 24 hrs by Western blot analysis; format: cell-based
mTORC1 (Homo sapiens) [12] = target: T1, mTORC1 (Homo sapiens); test: Inhibition of mTORC1 in human LY10 cells assessed as reduction in 4E-BP1 phosphorylation at 3 uM measured after 24 hrs by Western blot analysis; format: cell-based
mTORC1 (Homo sapiens) [13] = target: T1, mTORC1 (Homo sapiens); test: Inhibition of mTORC1 in human LY10 cells assessed as reduction in c-Myc expression at 3 uM measured after 24 hrs in presence of carfilzomib by Western blot analysis; format: cell-based
LY7 [14] = test: Cytotoxicity against human LY7 cells assessed as reduction in cell viability measured after 24 hrs by cell titer-glo assay; format: functional, cell-based
Z-138 = test: Cytotoxicity against human Z138 cells assessed as reduction in cell viability measured after 48 hrs by cell titer-glo assay; format: functional, cell-based
H9 = test: Cytotoxicity against human H9 cells assessed as reduction in cell viability measured after 48 hrs by cell titer-glo assay; format: functional, cell-based
OCI-Ly10 [15] = test: Cytotoxicity against human LY10 cells assessed as reduction in cell viability measured after 24 hrs by cell titer-glo assay; format: functional, cell-based
JeKo-1 = test: Cytotoxicity against human JeKo-1 cells assessed as reduction in cell viability measured after 24 hrs by cell titer-glo assay; format: functional, cell-based
Rec1 = test: Cytotoxicity against human REC1 cells assessed as reduction in cell viability measured after 24 hrs by cell titer-glo assay; format: functional, cell-based
OCI-Ly10 [16] = test: Induction of apoptosis in human LY10 cells assessed as increase in cleaved-PARP expression at 3 uM measured after 24 hrs in presence of carfilzomib by Western blot analysis; format: functional, cell-based
LY7 [17] = test: Induction of apoptosis in human LY7 cells assessed as increase in cleaved-PARP expression at 3 uM measured after 24 hrs in presence of carfilzomib by Western blot analysis; format: functional, cell-based
PF-382 = test: Induction of apoptosis in human PF-382 cells assessed as increase in cleaved-PARP expression at 5 uM measured after 24 hrs in presence of carfilzomib by Western blot analysis; format: functional, cell-based
CLL cell = test: Induction of apoptosis in human CLL cells assessed as increase in cleaved-PARP expression at 5 uM measured after 24 hrs in presence of carfilzomib by Western blot analysis; format: functional, cell-based
SLL = test: Induction of apoptosis in human SLL cells assessed as increase in cleaved-PARP expression at 5 uM measured after 24 hrs in presence of carfilzomib by Western blot analysis; format: functional, cell-based
MZL = test: Induction of apoptosis in human MZL cells assessed as increase in cleaved-PARP expression at 5 uM measured after 24 hrs in presence of carfilzomib by Western blot analysis; format: functional, cell-based
OCI-Ly10 [18] = test: Induction of apoptosis in human LY10 cells assessed as increase in caspase-3/7 activation at 1 to 3 uM measured after 24 hrs in presence of carfilzomib; format: functional, cell-based; settings: dose 1-3 µM
mTORC1 (Homo sapiens) [19] = target: T1, mTORC1 (Homo sapiens); test: Inhibition of mTORC1 in human LY10 cells assessed as reduction in c-Myc mRNA expression at 3 uM measured after 24 hrs in presence of carfilzomib; format: cell-based
mTORC1 (Homo sapiens) [20] = target: T1, mTORC1 (Homo sapiens); test: Inhibition of mTORC1 in human LY10 cells assessed as reduction in c-Myc mRNA expression at 3 uM measured after 24 hrs in presence of bortezomib; format: cell-based
[21] = target: Myc proto-oncogene protein (Homo sapiens) (UniProt P01106); test: Inhibition of c-Myc in human LY10 cells assessed as reduction in eIF4B expression at 3 uM incubated for 24 hrs by Western blot analysis; format: cell-based
[22] = target: Myc proto-oncogene protein (Homo sapiens) (UniProt P01106); test: Inhibition of c-Myc in human LY10 cells assessed as reduction in E2F1 expression at 3 uM incubated for 24 hrs by Western blot analysis; format: cell-based
[23] = target: Myc proto-oncogene protein (Homo sapiens) (UniProt P01106); test: Inhibition of c-Myc in human LY7 cells assessed as reduction in eIF4B expression at 3 uM incubated for 24 hrs by Western blot analysis; format: cell-based
[24] = target: Myc proto-oncogene protein (Homo sapiens) (UniProt P01106); test: Inhibition of c-Myc in human LY7 cells assessed as reduction in E2F1 expression at 3 uM incubated for 24 hrs by Western blot analysis; format: cell-based
[25] = target: T2, Dual specificity mitogen-activated protein kinase kinase 6 (Homo sapiens) (UniProt P52564); test: Inhibition of human MKK6 assessed as enzyme activity at 1 uM using p38a (K53A) as substrate preincubated for 20 mins followed by [gamma-33P]-ATP addition and measured after 120 mins by radiometric Hot-SpotSM Kinase assay relative to control; set-up: scale not given: the % may be the effect or the level left
T2 sequence (whole entry): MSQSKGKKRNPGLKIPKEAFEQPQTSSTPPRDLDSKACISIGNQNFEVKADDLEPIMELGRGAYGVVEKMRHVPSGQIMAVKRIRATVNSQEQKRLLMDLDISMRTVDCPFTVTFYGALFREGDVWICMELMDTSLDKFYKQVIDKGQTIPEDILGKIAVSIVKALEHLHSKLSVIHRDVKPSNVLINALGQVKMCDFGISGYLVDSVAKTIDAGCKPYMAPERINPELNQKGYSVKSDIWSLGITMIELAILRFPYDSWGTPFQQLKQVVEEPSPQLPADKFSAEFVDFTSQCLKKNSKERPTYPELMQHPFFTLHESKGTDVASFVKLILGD

Sequence of Myc proto-oncogene protein (Homo sapiens) (P01106 whole entry): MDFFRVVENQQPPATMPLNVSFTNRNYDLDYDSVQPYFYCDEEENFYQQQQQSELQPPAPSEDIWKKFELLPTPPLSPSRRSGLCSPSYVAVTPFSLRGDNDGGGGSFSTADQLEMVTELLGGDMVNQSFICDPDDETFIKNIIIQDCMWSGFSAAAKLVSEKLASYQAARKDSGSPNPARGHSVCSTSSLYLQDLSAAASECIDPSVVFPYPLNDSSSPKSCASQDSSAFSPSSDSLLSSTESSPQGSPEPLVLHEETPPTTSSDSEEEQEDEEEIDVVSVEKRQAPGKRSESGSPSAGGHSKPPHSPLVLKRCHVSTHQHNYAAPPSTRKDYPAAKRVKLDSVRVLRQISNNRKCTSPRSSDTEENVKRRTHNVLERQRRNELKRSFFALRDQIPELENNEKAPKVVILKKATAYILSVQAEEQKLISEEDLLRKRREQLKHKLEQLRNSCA
T1 sequence (Q8N122 whole entry, looked up, other chains not shown): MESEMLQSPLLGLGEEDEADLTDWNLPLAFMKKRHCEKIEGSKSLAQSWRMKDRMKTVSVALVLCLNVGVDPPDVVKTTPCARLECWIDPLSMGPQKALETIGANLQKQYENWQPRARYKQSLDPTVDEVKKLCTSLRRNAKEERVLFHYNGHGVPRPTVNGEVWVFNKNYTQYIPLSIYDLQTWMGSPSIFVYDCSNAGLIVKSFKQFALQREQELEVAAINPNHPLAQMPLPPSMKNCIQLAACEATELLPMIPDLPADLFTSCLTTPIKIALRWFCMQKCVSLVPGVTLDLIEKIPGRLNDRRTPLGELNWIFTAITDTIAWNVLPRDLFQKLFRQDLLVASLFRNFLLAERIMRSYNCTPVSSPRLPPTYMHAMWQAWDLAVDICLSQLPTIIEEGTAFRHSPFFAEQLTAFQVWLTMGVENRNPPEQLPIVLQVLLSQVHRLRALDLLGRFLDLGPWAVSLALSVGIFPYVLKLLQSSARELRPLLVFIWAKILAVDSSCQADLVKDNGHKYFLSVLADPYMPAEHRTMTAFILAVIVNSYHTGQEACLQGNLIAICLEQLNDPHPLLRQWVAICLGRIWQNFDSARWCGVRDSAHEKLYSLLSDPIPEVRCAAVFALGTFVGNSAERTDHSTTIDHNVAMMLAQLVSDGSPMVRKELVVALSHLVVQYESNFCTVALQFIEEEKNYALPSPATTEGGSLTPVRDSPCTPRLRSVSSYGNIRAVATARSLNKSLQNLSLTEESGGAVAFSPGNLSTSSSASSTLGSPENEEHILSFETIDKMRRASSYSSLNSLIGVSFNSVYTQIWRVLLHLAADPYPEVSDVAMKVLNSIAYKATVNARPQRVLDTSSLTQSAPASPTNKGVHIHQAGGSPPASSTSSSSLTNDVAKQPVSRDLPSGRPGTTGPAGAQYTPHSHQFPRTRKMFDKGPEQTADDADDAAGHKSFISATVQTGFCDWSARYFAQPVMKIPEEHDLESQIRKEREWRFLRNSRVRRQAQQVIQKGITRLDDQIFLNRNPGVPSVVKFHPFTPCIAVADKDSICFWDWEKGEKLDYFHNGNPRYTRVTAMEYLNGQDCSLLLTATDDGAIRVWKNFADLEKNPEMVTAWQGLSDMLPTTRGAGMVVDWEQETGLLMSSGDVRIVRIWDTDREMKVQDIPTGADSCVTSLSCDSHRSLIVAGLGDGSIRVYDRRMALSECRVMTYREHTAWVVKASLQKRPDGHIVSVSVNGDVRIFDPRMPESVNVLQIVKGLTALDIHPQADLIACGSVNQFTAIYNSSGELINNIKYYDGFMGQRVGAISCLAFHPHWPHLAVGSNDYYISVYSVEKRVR
T1 sequence (Q9BVC4 whole entry, looked up, other chains not shown): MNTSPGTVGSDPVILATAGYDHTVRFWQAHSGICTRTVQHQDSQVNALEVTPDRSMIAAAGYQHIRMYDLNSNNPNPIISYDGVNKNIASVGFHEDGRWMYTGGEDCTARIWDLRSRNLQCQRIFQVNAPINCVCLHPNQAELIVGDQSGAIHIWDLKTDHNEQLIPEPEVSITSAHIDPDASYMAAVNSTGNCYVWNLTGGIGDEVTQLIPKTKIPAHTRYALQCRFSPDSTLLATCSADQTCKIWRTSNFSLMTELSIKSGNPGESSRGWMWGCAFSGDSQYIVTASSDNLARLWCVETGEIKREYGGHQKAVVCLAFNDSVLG

CC[C@H](Nc1ncnc2[nH]cnc12)c1nc2cccc(F)c2c(=O)n1-c1ccccc1
inhibition (mTORC1 (Homo sapiens) [1]): inactive
inhibition (mTORC1 (Homo sapiens) [2]): inactive
inhibition (mTORC1 (Homo sapiens) [3]): inactive
inhibition (mTORC1 (Homo sapiens) [4]): inactive
inhibition (mTORC1 (Homo sapiens) [5]): inactive
inhibition (mTORC1 (Homo sapiens) [6]): inactive
inhibition (mTORC1 (Homo sapiens) [7]): inactive
inhibition (mTORC1 (Homo sapiens) [8]): inactive
inhibition (mTORC1 (Homo sapiens) [9]): inactive
inhibition (mTORC1 (Homo sapiens) [10]): inactive
inhibition (mTORC1 (Homo sapiens) [11]): inactive
inhibition (mTORC1 (Homo sapiens) [12]): inactive
inhibition (mTORC1 (Homo sapiens) [13]): Active
Activity (LY7 [14]): Active
Activity (Z-138): Active
Activity (H9): Active
Activity (OCI-Ly10 [15]): Active
Activity (JeKo-1): Active
Activity (Rec1): Active
Activity (OCI-Ly10 [16]): Active
Activity (LY7 [17]): Active
Activity (PF-382): Active
Activity (CLL cell): Active
Activity (SLL): Active
Activity (MZL): Active
Activity (OCI-Ly10 [18]): Active
inhibition (mTORC1 (Homo sapiens) [19]): inactive
inhibition (mTORC1 (Homo sapiens) [20]): inactive
inhibition [21]: inactive
inhibition [22]: inactive
inhibition [23]: inactive
inhibition [24]: inactive
Activity [25]: 87.2%

C[C@H](Nc1ncnc2nc[nH]c12)c1cc2cccc(Cl)c2c(=O)n1-c1ccccc1
Activity [25]: 86.2%

CC(C)Oc1ccc(-c2nn([C@@H](C)c3oc4ccc(F)cc4c(=O)c3-c3cccc(F)c3)c3ncnc(N)c23)cc1F [UMBRALISIB]
inhibition (mTORC1 (Homo sapiens) [1]): inactive
inhibition (mTORC1 (Homo sapiens) [2]): inactive
inhibition (mTORC1 (Homo sapiens) [3]): inactive
inhibition (mTORC1 (Homo sapiens) [4]): inactive
inhibition (mTORC1 (Homo sapiens) [5]): inactive
inhibition (mTORC1 (Homo sapiens) [6]): inactive
inhibition (mTORC1 (Homo sapiens) [7]): Active
inhibition (mTORC1 (Homo sapiens) [9]): inactive
inhibition (mTORC1 (Homo sapiens) [10]): inactive
inhibition (mTORC1 (Homo sapiens) [11]): inactive
inhibition (mTORC1 (Homo sapiens) [12]): inactive
inhibition (mTORC1 (Homo sapiens) [13]): Active
Activity (LY7 [14]): Active
Activity (Z-138): Active
Activity (H9): Active
Activity (OCI-Ly10 [15]): Active
Activity (JeKo-1): Active
Activity (Rec1): Active
Activity (OCI-Ly10 [16]): Active
Activity (LY7 [17]): Active
Activity (PF-382): Active
Activity (CLL cell): Active
Activity (SLL): Active
Activity (MZL): Active
Activity (OCI-Ly10 [18]): Active
inhibition (mTORC1 (Homo sapiens) [19]): inactive
inhibition (mTORC1 (Homo sapiens) [20]): inactive
inhibition [21]: inactive
inhibition [22]: inactive
inhibition [23]: inactive
inhibition [24]: inactive
Activity [25]: 87.8%
